Assay results published in article PMC6443244 (Cell chemical biology, 2016).

Target: Fatty acid synthase (FASN) (Homo sapiens, UniProt P49327)
Assay: […]malonyl-CoA incorporation into fatty acids by purified FASN
Format: biochemical

Fatty acid synthase (FASN), sequence (P49327 whole entry): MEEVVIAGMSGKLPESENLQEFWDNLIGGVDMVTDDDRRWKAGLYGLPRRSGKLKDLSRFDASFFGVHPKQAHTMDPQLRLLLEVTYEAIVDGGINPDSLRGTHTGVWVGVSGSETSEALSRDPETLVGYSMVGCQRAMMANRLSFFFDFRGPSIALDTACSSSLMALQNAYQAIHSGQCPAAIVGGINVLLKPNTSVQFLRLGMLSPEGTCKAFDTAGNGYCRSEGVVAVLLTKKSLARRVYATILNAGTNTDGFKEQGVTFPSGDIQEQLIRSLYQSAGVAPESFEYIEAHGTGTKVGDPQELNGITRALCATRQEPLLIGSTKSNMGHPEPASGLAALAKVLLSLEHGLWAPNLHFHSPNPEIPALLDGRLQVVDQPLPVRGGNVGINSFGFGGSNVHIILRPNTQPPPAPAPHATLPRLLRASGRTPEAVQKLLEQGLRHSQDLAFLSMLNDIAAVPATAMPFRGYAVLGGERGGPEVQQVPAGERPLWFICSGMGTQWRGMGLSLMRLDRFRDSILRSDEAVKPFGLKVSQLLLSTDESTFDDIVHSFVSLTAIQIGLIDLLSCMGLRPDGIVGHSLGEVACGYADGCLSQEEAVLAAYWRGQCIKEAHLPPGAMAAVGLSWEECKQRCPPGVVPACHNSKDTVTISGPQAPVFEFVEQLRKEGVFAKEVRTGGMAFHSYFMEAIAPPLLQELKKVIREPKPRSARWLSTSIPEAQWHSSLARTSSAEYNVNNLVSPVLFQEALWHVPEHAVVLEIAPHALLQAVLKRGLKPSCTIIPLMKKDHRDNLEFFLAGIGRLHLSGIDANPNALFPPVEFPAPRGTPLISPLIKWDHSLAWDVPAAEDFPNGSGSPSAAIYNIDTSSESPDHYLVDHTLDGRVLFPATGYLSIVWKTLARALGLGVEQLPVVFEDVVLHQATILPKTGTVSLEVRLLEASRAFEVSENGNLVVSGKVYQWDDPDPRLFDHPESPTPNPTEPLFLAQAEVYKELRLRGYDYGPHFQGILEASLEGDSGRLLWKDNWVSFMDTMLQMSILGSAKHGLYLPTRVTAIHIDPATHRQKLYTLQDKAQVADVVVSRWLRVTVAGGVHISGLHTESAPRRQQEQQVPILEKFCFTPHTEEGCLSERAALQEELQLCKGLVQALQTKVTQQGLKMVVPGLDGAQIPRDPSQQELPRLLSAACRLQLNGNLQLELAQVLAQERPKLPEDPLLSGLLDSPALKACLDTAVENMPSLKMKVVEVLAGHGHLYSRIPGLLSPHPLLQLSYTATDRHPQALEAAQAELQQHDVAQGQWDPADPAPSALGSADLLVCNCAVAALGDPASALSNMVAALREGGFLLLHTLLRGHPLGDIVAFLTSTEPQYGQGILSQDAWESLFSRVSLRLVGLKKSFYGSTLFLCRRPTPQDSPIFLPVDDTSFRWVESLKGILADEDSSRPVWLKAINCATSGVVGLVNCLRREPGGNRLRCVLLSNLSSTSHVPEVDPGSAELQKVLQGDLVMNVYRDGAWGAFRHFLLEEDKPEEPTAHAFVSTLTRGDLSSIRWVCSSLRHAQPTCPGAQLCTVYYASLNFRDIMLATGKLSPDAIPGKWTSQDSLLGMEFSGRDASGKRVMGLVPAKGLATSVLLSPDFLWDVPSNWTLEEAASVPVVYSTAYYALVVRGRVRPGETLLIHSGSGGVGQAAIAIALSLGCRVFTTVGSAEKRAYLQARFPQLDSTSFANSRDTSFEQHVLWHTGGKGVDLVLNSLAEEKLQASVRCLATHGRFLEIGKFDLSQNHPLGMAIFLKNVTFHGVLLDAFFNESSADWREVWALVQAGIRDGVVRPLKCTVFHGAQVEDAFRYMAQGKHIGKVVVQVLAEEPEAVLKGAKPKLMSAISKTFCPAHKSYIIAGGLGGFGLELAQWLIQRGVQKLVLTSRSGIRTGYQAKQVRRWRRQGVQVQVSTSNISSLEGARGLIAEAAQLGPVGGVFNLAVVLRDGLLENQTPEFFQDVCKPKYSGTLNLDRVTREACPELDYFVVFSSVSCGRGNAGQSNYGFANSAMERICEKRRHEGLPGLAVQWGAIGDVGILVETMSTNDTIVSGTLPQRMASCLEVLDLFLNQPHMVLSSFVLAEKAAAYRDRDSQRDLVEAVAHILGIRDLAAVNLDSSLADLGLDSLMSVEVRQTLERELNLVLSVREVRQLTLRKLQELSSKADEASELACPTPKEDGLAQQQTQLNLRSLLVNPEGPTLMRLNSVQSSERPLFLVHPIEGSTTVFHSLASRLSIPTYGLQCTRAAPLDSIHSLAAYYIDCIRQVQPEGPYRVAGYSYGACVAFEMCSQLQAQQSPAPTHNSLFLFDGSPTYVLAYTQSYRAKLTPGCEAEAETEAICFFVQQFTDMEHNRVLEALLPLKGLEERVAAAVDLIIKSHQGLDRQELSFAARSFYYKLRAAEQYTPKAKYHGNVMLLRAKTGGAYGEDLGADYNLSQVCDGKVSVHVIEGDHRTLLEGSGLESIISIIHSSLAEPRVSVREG

## Cc1sc2ncnc(NC3CCN(Cc4ccccc4)C3)c2c1C (stereo not shown) [Fasnall]
  IC50: 3.71 µM
